ChEMBL document CHEMBL5465560, “Selectivity Literature for EUbOPEN Chemogenomic Library” (2024)

Columns and labels:
[1] = target: Dual specificity protein kinase CLK1 (Homo sapiens, UniProt P49759); test: Selectivity interaction (Kinase panel (Z-LYTE Assay)) EUB0001632a CLK1; conditions: at 10 µM
[2] = target: T1, Serine/threonine-protein kinase NLK (Homo sapiens) (UniProt Q9UBE8); test: Selectivity interaction (LanthaScreen Eu Kinase Binding Assay) EUB0001632a NLK; conditions: at 10 µM
T1 sequence (whole entry): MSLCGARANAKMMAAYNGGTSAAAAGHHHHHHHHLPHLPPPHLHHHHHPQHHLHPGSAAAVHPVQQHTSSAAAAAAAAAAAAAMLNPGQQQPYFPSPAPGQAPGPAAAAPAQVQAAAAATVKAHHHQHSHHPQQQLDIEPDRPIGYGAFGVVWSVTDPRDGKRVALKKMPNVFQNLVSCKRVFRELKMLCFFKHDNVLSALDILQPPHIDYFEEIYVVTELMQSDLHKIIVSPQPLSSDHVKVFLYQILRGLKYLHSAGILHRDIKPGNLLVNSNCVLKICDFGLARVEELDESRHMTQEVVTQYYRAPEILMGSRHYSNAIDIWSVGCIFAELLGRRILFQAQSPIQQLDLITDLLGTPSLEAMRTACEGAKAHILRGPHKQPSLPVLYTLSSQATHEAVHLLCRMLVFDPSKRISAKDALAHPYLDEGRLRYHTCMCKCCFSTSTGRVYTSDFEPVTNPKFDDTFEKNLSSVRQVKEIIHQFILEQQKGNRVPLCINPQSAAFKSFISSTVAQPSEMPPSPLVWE

[3] = target: Calcium/calmodulin-dependent protein kinase type II subunit delta (Homo sapiens) (UniProt Q13557); test: Selectivity interaction (Kinase panel (Z-LYTE Assay)) EUB0001632a CAMK2D; conditions: at 10 µM
[4] = target: Misshapen-like kinase 1 (Homo sapiens, UniProt Q8N4C8); test: Selectivity interaction (KinomeScan (DiscoverX)) EUB0000666a MINK1; conditions: at 10 µM
[5] = target: Macrophage colony-stimulating factor 1 receptor (Homo sapiens) (UniProt P07333); test: Selectivity interaction (KinomeScan (DiscoverX)) EUB0000666a CSF1R; conditions: at 10 µM
Chain of Macrophage colony-stimulating factor 1 receptor (Homo sapiens) (P07333 whole entry): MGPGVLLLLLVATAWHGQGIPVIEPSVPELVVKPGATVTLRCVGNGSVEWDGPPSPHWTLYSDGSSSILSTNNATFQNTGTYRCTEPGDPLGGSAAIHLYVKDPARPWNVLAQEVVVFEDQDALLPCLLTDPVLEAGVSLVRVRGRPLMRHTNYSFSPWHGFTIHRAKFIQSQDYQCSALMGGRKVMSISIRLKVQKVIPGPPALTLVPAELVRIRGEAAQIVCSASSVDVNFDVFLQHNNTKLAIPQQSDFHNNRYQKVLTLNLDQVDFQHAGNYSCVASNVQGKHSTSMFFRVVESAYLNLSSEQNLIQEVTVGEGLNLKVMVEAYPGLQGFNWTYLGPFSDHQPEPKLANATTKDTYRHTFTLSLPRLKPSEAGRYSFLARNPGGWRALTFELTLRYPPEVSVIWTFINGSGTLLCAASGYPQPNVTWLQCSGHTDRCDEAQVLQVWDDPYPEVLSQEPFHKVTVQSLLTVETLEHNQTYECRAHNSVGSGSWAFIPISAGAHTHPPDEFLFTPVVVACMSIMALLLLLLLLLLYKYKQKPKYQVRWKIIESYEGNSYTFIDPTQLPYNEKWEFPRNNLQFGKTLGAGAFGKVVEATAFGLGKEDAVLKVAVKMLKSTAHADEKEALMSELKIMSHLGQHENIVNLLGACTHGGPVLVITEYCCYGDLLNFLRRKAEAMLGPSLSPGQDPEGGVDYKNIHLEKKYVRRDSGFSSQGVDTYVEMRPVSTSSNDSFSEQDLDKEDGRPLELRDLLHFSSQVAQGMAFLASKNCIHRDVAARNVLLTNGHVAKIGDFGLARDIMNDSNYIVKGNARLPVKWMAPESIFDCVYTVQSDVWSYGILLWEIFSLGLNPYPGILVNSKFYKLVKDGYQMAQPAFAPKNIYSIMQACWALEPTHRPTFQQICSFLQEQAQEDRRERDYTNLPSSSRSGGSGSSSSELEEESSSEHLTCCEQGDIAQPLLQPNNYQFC

[6] = target: Epidermal growth factor receptor (Homo sapiens, UniProt P00533); test: Selectivity interaction (Kinase panel (literature)) EUB0001199aCl EGFR; conditions: at 1 µM
[7] = target: Tyrosine-protein kinase ABL2 (Homo sapiens, UniProt P42684); test: Selectivity interaction (KinomeScan (DiscoverX)) EUB0000607a ABL2; conditions: at 10 µM
Chain of Tyrosine-protein kinase ABL2 (P42684 whole entry): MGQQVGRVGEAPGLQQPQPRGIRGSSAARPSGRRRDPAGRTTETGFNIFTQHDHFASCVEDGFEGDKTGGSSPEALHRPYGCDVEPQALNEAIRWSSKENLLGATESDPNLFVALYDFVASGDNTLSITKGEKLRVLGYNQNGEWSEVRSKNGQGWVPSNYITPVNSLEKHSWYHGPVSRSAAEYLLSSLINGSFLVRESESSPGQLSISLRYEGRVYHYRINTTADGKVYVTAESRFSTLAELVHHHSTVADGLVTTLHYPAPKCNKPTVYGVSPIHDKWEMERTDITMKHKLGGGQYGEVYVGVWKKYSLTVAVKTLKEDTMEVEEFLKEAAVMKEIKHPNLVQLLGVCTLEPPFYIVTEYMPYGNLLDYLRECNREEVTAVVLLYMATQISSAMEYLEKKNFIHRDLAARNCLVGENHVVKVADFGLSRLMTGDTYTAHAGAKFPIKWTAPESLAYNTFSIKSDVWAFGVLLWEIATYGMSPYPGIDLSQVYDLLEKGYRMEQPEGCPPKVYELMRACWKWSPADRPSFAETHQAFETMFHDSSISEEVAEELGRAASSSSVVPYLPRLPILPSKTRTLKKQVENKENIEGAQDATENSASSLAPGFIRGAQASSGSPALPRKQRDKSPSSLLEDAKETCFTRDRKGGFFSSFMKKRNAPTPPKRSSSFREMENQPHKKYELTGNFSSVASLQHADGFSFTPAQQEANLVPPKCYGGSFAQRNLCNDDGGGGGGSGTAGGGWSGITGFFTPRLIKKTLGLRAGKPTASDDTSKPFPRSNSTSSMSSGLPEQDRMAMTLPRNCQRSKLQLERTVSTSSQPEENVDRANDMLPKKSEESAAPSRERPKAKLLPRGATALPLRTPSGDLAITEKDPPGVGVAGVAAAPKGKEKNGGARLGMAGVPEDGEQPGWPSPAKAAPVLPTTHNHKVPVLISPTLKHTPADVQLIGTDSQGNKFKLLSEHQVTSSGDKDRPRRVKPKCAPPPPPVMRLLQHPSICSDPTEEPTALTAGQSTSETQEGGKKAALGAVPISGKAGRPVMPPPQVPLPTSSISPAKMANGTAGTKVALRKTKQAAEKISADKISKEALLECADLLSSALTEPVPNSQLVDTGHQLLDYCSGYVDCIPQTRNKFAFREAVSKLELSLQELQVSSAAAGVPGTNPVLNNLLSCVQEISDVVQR

[8] = target: STE20-like serine/threonine-protein kinase (Homo sapiens, UniProt Q9H2G2); test: Selectivity interaction (KinomeScan (DiscoverX)) EUB0000607a SLK; conditions: at 10 µM
[9] = target: Serine/threonine-protein kinase 26 (Homo sapiens, UniProt Q9P289); test: Selectivity interaction (Upstate Kinase Profiler service (Millipore)) EUB0000056c STK26; conditions: at 1 µM
[10] = target: T2, Serine/threonine-protein kinase DCLK2 (Homo sapiens) (UniProt Q8N568); test: Selectivity interaction (Kinase panel (Invitrogen)) EUB0000639a DCLK2; conditions: at 200 nM
T2 sequence (whole entry): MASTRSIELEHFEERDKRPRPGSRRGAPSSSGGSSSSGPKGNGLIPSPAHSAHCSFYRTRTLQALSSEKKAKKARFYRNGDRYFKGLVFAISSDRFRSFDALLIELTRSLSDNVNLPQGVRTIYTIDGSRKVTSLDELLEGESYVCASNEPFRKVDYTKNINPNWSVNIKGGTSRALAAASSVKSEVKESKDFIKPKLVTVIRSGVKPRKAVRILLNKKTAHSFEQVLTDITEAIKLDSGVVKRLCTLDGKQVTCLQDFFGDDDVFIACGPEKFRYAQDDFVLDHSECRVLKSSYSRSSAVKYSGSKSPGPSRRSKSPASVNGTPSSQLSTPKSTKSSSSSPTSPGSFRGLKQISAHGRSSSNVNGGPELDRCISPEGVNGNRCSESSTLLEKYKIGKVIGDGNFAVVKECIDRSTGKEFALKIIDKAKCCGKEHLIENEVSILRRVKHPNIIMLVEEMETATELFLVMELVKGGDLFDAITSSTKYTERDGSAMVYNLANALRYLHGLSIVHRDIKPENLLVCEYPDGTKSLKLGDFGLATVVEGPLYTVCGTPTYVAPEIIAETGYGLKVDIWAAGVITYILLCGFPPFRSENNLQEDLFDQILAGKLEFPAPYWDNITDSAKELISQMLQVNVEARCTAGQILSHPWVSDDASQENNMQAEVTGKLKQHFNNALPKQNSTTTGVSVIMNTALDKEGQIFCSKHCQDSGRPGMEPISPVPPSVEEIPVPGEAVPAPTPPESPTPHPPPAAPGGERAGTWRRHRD

[11] = target: Serine/threonine-protein kinase 17A (Homo sapiens, UniProt Q9UEE5)
[12] = target: Protein-tyrosine kinase 2-beta (Homo sapiens) (UniProt Q14289); test: Selectivity interaction (ProQinase) EUB0000171b PTK2B
Chain of Protein-tyrosine kinase 2-beta (Homo sapiens) (Q14289 whole entry, looked up): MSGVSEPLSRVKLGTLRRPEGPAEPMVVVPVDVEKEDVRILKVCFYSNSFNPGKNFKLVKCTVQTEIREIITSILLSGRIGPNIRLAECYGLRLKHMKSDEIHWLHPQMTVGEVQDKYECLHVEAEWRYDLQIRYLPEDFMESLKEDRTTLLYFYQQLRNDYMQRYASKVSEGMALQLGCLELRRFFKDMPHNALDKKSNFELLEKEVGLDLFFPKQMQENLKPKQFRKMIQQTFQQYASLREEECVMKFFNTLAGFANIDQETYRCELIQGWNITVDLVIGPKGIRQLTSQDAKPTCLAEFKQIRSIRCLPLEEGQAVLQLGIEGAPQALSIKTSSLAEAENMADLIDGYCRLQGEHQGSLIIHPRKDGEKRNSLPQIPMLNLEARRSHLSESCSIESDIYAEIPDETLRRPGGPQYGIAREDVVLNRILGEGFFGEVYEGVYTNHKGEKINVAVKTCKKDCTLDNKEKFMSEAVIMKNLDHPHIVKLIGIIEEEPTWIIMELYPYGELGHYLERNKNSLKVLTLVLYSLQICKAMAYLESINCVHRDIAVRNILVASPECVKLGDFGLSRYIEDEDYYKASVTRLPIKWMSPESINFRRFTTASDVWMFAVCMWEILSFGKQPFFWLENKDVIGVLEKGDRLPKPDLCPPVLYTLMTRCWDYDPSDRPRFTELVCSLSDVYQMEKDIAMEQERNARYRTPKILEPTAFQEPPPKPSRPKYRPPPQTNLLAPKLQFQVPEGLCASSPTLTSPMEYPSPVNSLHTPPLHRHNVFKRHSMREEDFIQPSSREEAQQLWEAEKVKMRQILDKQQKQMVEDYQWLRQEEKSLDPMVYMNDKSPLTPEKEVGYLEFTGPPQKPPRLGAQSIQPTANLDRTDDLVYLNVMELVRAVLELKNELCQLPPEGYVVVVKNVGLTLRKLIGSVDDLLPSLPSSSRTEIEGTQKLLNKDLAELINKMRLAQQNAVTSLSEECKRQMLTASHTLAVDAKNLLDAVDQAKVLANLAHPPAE

[13] = target: Serine/threonine-protein kinase 25 (Homo sapiens) (UniProt O00506); test: Selectivity interaction (KinomeScan (DiscoverX)) EUB0000695a STK25; conditions: at 100 nM
[14] = target: Phosphatidylinositol 4,5-bisphosphate 3-kinase catalytic subunit beta isoform (Homo sapiens) (UniProt P42338); test: Selectivity interaction (KinomeScan (DiscoverX)) EUB0000595a PIK3CB; conditions: at 10 µM
[15] = target: Dual specificity protein kinase CLK4 (Homo sapiens, UniProt Q9HAZ1); test: Selectivity interaction (KinomeScan (DiscoverX)) EUB0000595a CLK4; conditions: at 10 µM
[16] = target: Ribosomal protein S6 kinase alpha-2 (Homo sapiens) (UniProt Q15349); test: Selectivity interaction (KinomeScan (DiscoverX)) EUB0001049a RPS6KA2; conditions: at 1 µM
Chain of Ribosomal protein S6 kinase alpha-2 (Homo sapiens) (Q15349 whole entry): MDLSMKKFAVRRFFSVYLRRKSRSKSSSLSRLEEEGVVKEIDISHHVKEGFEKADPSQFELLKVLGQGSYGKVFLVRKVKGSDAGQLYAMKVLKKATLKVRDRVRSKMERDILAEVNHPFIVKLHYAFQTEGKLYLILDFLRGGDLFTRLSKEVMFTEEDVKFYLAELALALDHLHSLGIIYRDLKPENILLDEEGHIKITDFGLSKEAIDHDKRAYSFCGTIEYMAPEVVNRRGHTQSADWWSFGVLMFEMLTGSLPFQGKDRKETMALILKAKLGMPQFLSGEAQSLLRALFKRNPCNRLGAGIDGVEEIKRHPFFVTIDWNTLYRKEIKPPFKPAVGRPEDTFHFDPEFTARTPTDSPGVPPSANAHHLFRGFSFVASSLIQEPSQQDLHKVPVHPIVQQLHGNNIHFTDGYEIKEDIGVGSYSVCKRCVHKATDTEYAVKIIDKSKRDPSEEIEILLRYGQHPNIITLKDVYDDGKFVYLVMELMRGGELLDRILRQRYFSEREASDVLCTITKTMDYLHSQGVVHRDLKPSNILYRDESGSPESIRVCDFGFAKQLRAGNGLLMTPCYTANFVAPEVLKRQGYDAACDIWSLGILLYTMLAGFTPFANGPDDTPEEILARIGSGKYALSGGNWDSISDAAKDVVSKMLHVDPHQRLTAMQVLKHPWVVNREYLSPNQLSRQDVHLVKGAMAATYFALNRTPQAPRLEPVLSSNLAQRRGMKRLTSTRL

[17] = target: Serine/threonine-protein kinase N2 (Homo sapiens, UniProt Q16513); test: Selectivity interaction (Kinase screening (Upstate/Millipore)) EUB0000604a PKN2
[18] = target: Serine/threonine-protein kinase Chk2 (Homo sapiens) (UniProt O96017); test: Selectivity interaction (Millipore kinase profiler) EUB0000124b CHEK2; conditions: at 10 µM
[19] = target: Ribosomal protein S6 kinase alpha-2 (Homo sapiens) (UniProt Q15349); test: Selectivity interaction (KinomeScan (DiscoverX)) EUB0000045b RPS6KA2; conditions: at 1 µM
[20] = target: Activin receptor type-1-like (Homo sapiens) (UniProt P37023); test: Selectivity interaction (KinomeScan (DiscoverX)) EUB0000092b ACVRL1; conditions: at 10 µM
[21] = target: Tyrosine-protein kinase BTK (Homo sapiens, UniProt Q06187); test: Selectivity interaction (KinomeScan (DiscoverX)) EUB0000618a BTK; conditions: at 10 µM
Chain of Tyrosine-protein kinase BTK (Q06187 whole entry): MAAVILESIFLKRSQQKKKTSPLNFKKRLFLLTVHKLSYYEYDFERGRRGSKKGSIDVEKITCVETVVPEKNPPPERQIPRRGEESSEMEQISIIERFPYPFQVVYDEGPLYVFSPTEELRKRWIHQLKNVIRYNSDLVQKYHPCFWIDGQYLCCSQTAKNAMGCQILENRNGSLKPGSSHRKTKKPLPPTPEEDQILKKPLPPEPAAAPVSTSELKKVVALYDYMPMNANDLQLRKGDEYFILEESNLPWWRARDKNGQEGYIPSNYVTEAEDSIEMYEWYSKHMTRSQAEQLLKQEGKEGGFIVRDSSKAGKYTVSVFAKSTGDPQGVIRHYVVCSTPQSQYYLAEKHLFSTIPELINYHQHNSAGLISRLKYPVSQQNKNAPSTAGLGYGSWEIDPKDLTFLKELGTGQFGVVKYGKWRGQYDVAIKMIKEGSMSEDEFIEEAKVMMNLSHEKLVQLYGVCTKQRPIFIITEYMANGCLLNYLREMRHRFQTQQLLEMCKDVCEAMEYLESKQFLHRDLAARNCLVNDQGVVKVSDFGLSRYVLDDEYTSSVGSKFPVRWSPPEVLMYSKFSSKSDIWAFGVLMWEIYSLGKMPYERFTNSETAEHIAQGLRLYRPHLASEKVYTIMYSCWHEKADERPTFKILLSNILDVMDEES

Chain of Dual specificity protein kinase CLK1 (P49759 whole entry, looked up): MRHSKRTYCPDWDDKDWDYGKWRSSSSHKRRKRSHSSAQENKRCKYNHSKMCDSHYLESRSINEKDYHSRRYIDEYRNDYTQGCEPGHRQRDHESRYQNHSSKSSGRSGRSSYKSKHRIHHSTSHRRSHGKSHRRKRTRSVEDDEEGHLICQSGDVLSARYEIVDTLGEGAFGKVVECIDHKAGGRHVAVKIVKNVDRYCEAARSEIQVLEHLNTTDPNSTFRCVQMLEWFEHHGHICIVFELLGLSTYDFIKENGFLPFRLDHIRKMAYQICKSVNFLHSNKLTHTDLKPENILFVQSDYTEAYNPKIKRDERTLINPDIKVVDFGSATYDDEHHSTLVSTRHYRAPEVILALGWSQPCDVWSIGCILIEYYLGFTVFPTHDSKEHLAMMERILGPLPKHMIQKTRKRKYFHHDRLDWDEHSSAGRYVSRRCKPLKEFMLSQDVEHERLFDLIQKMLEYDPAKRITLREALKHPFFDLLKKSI

## Cn1cc(-n2cnc3c(NCc4nc5cc(Cl)c(Cl)cc5[nH]4)nc(N4CCOCC4)nc32)cn1
[1]
  % of control: 8.07%
[2]
  % of inhibition: 13.4%
[3]
  % of control: -1.23%

## O=C(NOC[C@H](O)CO)c1ccc(F)c(F)c1Nc1ccc(I)cc1F
[4]
  % of control: 94%
[5]
  % of control: 100%

## CN1Cc2nccc(-c3cn(C)nc3-c3ccc(F)cc3)c2C1=O
[6]
  % of inhibition: 8%

## CNC(=O)Nc1ccc(-c2nc(N3CC4CCC(C3)O4)c3cnn(C4CCC5(CC4)OCCO5)c3n2)cc1
[7]
  % of control: 84%
[8]
  % of control: 100%

## Cc1ccc(-c2ccc3c(ccc4sc5c(c43)NC[C@@H](C)NC5=O)n2)cn1
[9]
  % of inhibition: 15%

## CC[C@@H]1[C@H](F)C(=O)N[C@@H]1COc1nccc2cc(C(N)=O)c(OC)cc12 [ZIMLOVISERTIB]
[10]
  % of inhibition: 24.9%

## CN1CCN(C(=O)c2ccc3cc2OCCOCCNc2ccn4ncc-3c4n2)CC1
[11]
  IC50: 20 µM

## C=CC(=O)Nc1cccc(C(=O)Nc2ccc(Nc3cc(-c4[nH]c(SC)nc4C)ccn3)cc2)c1
[12]; at 1 µM
  % of control: 91%
[12]; at 5 µM
  % of control: 96%

## Cc1cc(F)c(C(=O)Nc2cccc(-c3nncn3C(C)C)n2)cc1-n1cnc(C2CC2)c1
[13]
  % of control: 100%

## COCC(=O)NC/C=C/c1ccc2ncnc(Nc3ccc(Oc4ccc(C)nc4)c(C)c3)c2c1 [CP-724714]
[14]
  % of control: 100%
[15]
  % of control: 100%

## COc1cc(Nc2nc(C)cc(-c3cnn4nc(OC)ccc34)n2)cc(C(F)(F)F)c1
[16]
  % of control: 90%

## Cc1cnc(Nc2ccc(F)cc2Cl)nc1-c1c[nH]c(C(=O)N[C@H](CO)c2cccc(Cl)c2)c1
[17]
  % of inhibition: 14%

## CC(=O)Nc1cccc(-n2c(=O)n(C3CC3)c(=O)c3c(Nc4ccc(I)cc4F)n(C)c(=O)c(C)c32)c1
[18]
  % of control: 98%

## C=CC(=O)Nc1cc(-n2c(=O)ccc3cnc4ccc(-c5ccc(NS(C)(=O)=O)cc5)cc4c32)ccc1C
[19]
  % of control: 90%

## CCC(=O)N1CCN(c2ccc(-n3c(=O)ccc4cnc5ccc(-c6cnc7ccccc7c6)cc5c43)cc2C(F)(F)F)CC1
[20]
  % of control: 83%

## O[C@H]1CC[C@H](Nc2ncc3nc(Nc4c(F)cc(F)cc4F)n([C@H]4CCOC4)c3n2)CC1
[21]
  % of control: 100%
